Test results published in US20110040086A1, “Novel Beta-Lactam Antibiotics, Methods for Their Production, and Their Use” (DRITTE PATENTPORTFOLIO BETEILIGUNGSGESELLSCHAFT MB, priority 2007, published 2011).

What was measured:
[1] = system: Enterococcus faecalis 769; test: agar diffusion test (Test System II, multi-resistant germs); assay type: cell-based; design: key: r = resistant (no detectable zone of inhibition)
Description: (§1) The test substances are deposited in stepped quantities (10 μg, 50 μg, 100 μg) onto active ingredient carriers (sensi-discs). For this purpose, the test substances are dissolved in methanol or A. dest. according to their solubility. Each inoculated plate is fitted with 3 test sheets.
(§2) Test System II (Effect Against Multi-Resistant Germs)
(§3) For this purpose, bacteria is cultivated on Müller-Hinton-Agar II plates.
(§4) With 1-1.5 ml physiological saline solution, a bacteria suspension of McFarland 0.5 (corresponds to a bacteria density of 150×10^6 germs) is produced. Then, with a sterile glass rod, a small drop of bacteria suspension is placed on the Müller-Hinton-Agar plate and coated in three layers (vertical, horizontal, and transverse). Thereafter, the sensi-discs with the novel semi-synthetic test substances are placed on top. The fitted plates are incubated for 18-20 hours at 37° C. After incubation, the diameters of the zones of inhibition are read as a measure for the antimicrobial activity of the novel semi-synthetic test substances.

[2] = system: Staphylococcus aureus 315; test: as above; assay type: cell-based; design: key: r = resistant (no detectable zone of inhibition)
Description: as §1, §2, §3, §4

S. aureus 36881 = test: as above; assay type: cell-based, Staphylococcus aureus; design: key: r = resistant (no detectable zone of inhibition)
Description: as §1, §2, §3, §4

S. aureus 520 = test: as above; assay type: cell-based, Staphylococcus aureus; design: key: r = resistant (no detectable zone of inhibition)
Description: as §1, §2, §3, §4

[3] = system: S. aureus North Germany strain; test: as above; assay type: cell-based, Staphylococcus aureus; design: key: r = resistant (no detectable zone of inhibition)
Description: as §1, §2, §3, §4

S. aureus 38418 = test: as above; assay type: cell-based, Staphylococcus aureus
Description: as §1, §2, §3, §4

S. aureus ATCC 6538 = test: as above; assay type: cell-based, Staphylococcus aureus
Description: as §1, §2, §3, §4

S. epidermidis 847 = test: as above; assay type: cell-based, Staphylococcus epidermidis; design: key: r = resistant (no detectable zone of inhibition)
Description: as §1, §2, §3, §4

S. epidermidis 125 = test: as above; assay type: cell-based, Staphylococcus epidermidis
Description: as §1, §2, §3, §4

[4] = system: Staphylococcus aureus ATCC 6538; test: mouse infected with Staphylococcus aureus infection model (survival); assay type: in vivo, BALB/c mice; details: 2 × 1.0 mg (50 mg/kg) i.p.
Description: Method for Effectiveness In Vivo with the Mouse Infected with Staphylococcus aureus Model
On Day 0, at least 3 BALB/c mice per test substance (Table 8) or controls are pretreated with cyclophosphamide (250 mg/kg) in 250 μl PBS inta peritoneal (i.p.).
On Day 2, the animals again received 100 mg/kg i.p.
On Day 2, a colony of the test germ is transferred from a growing agar plate (Müller-Hinton-Agar, Beckton Dickinson) into a flask with 10 ml CASO broth (CASO-B., Soyabean peptone-Casein peptone broth, SIFIN, 30 g/l) and is cultivated overnight at 37° C. and a shaking frequency of 250 rpm.
On Day 3, the pre-culture (Vk) is diluted 1:50 with CASO-B and further cultivated ca. 2 hours until an extinction in the medium of 0.6 at a wavelength of 550 nm is reached. Then, it is grown 1× with PBS at room temperature and set again to an extinction of 0.6.
At least 3 animals for a test substance or controls are infected with 10 μl/g body weight grown germs of a bacteria suspension with the extinction 0.6 (ca. 10^10-10^12 CFU, Colony forming units) i.p.
After 30 minutes, antibiotic solution is injected into the mice in a volume of 200 μl PBS with 3% DMSO i.p. 6 hours later, the second antibiotic injection is performed at the same concentration. […]

“3-chlorine-7-[2-(2-carbamoyl-3,6-dioxocyclohexa-1,4-dienylamino)-2-phenyl-acetylamino]-8-oxo-5-aza-bicyclo[4.2.0]oct-3-ene-4-carboxylic acid [1n]” was tested, and the “Diameter of zone of inhibition” value ([1]; Quantity n 0.019) was “r”, the “Diameter of zone of inhibition” value ([1]; Quantity n 0.096) was “r” and the “Diameter of zone of inhibition” value ([1]; Quantity n 0.19) was “r”. For the same substance, the “Diameter of zone of inhibition” value ([2]; Quantity n 0.019) was “r”, the “Diameter of zone of inhibition” value ([2]; Quantity n 0.096) was “r” and the “Diameter of zone of inhibition” value ([2]; Quantity n 0.19) was 12 mm. For the same substance, the “Diameter of zone of inhibition” value (S. aureus 36881; Quantity n 0.019) was “r”, the “Diameter of zone of inhibition” value (S. aureus 36881; Quantity n 0.096) was “r” and the “Diameter of zone of inhibition” value (S. aureus 36881; Quantity n 0.19) was 8 mm. For the same substance, the “Diameter of zone of inhibition” value (S. aureus 520; Quantity n [mol] 0.019) was “r”, the “Diameter of zone of inhibition” value (S. aureus 520; Quantity n [mol] 0.096) was “r” and the “Diameter of zone of inhibition” value (S. aureus 520; Quantity n [mol] 0.19) was 8 mm. For the same substance, the “Diameter of zone of inhibition” value ([3]; Quantity n 0.019) was “r”, the “Diameter of zone of inhibition” value ([3]; Quantity n 0.096) was “r” and the “Diameter of zone of inhibition” value ([3]; Quantity n 0.19) was 14 mm. The “Diameter of zone of inhibition” value (S. aureus 38418; Quantity n [mol] 0.019) was 14 mm, the “Diameter of zone of inhibition” value (S. aureus 38418; Quantity n [mol] 0.096) was 26 mm and the “Diameter of zone of inhibition” value (S. aureus 38418; Quantity n [mol] 0.19) was 30 mm. The “Diameter of zone of inhibition” value (S. aureus ATCC 6538; Quantity n 0.019) was 22 mm, the “Diameter of zone of inhibition” value (S. aureus ATCC 6538; Quantity n 0.096) was 28 mm and the “Diameter of zone of inhibition” value (S. aureus ATCC 6538; Quantity n 0.19) was 32 mm. For the same substance, the “Diameter of zone of inhibition” value (S. epidermidis 847; Quantity n [mol] 0.019) was “r”, the “Diameter of zone of inhibition” value (S. epidermidis 847; Quantity n [mol] 0.096) was 16 mm and the “Diameter of zone of inhibition” value (S. epidermidis 847; Quantity n [mol] 0.19) was 20 mm. For the same substance, the “Diameter of zone of inhibition” value (S. epidermidis 125; Quantity n 0.019) was 14 mm, the “Diameter of zone of inhibition” value (S. epidermidis 125; Quantity n 0.096) was 22 mm and the “Diameter of zone of inhibition” value (S. epidermidis 125; Quantity n 0.19) was 26 mm. For the same substance, the Survival/tested mice n/n [4] was 3/3.
